Source: the kinase profiling compilation of Christmann-Franck et al. (2016)

Legend:
Assay in all cases: radiometric filter-binding kinase assay, Kinase HotSpot
Conditions in all cases: compound 0.5 µM; ATP 10 µM
ALK (human) = ALK (human) (UniProt Q9UM73)
BTK (human) = BTK (human) (UniProt Q06187)
CAMKK1 (human) = CAMKK1 (human) (UniProt Q8N5S9)
CDK2 CCNA2 (human) = CDK2 CCNA2 (human) (UniProt P24941+P20248)
CDK4 CCND3 (human) = CDK4 CCND3 (human) (UniProt P30281+P11802)
CDK6 CCND1 (human) = CDK6 CCND1 (human) (UniProt Q00534+P24385)
CDK6 CCND3 (human) = CDK6 CCND3 (human) (UniProt P30281+Q00534)
CLK3 (human) = CLK3 (human) (UniProt P49761)
CSNK1E (human) = CSNK1E (human) (UniProt P49674)
EPHA1 (human) = EPHA1 (human) (UniProt P21709)
EPHA8 (human) = EPHA8 (human) (UniProt P29322)
FES (human) = FES (human) (UniProt P07332)
Chain of FES (human) (P07332 whole entry, looked up): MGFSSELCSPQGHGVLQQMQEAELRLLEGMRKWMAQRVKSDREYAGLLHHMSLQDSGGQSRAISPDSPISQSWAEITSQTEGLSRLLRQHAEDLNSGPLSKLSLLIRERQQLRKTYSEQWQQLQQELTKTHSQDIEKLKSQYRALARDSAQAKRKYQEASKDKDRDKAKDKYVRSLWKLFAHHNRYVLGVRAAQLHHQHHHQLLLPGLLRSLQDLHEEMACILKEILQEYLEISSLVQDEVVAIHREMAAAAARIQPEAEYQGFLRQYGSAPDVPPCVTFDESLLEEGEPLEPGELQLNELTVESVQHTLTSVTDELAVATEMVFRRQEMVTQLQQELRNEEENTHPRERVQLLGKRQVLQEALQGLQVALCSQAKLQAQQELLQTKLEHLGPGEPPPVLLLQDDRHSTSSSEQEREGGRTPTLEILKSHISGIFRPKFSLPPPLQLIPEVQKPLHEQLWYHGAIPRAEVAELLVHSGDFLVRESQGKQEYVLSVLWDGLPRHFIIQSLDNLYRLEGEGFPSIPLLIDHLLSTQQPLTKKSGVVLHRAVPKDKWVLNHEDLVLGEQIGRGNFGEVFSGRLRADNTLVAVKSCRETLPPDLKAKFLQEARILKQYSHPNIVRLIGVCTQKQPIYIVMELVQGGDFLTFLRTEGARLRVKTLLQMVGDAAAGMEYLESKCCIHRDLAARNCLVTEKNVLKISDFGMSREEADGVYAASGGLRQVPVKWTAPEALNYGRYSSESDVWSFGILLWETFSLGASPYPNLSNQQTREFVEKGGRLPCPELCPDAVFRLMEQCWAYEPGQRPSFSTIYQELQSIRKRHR

FGFR1 (human) = FGFR1 (human) (UniProt P11362)
FGFR2 (human) = FGFR2 (human) (UniProt P21802)
FGFR3 (human) = FGFR3 (human) (UniProt P22607)
FGFR4 (human) = FGFR4 (human) (UniProt P22455)
Chain of FGFR4 (human) (P22455 whole entry, looked up): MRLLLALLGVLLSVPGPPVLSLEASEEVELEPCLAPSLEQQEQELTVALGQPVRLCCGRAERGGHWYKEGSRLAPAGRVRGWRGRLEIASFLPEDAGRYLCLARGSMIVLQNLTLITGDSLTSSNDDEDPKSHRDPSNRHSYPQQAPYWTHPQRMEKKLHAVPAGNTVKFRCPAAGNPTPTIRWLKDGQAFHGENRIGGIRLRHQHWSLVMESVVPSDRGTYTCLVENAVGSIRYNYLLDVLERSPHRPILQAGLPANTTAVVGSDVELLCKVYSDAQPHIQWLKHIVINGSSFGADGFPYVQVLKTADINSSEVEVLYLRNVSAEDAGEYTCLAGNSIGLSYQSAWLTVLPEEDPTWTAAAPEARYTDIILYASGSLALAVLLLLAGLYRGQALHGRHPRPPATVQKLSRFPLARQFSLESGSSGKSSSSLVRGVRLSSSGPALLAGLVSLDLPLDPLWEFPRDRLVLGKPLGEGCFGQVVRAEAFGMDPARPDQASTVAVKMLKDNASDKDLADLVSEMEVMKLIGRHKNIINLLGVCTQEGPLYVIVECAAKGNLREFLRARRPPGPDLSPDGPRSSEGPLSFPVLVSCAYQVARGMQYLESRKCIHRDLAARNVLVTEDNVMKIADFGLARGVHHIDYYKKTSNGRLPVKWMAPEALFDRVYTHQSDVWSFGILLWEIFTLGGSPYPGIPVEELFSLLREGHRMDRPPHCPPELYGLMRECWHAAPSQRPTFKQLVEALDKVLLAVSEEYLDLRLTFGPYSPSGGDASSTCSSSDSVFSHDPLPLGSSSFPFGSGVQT

FLT3 (human) = FLT3 (human) (UniProt P36888)
Chain of FLT3 (human) (P36888 whole entry, looked up): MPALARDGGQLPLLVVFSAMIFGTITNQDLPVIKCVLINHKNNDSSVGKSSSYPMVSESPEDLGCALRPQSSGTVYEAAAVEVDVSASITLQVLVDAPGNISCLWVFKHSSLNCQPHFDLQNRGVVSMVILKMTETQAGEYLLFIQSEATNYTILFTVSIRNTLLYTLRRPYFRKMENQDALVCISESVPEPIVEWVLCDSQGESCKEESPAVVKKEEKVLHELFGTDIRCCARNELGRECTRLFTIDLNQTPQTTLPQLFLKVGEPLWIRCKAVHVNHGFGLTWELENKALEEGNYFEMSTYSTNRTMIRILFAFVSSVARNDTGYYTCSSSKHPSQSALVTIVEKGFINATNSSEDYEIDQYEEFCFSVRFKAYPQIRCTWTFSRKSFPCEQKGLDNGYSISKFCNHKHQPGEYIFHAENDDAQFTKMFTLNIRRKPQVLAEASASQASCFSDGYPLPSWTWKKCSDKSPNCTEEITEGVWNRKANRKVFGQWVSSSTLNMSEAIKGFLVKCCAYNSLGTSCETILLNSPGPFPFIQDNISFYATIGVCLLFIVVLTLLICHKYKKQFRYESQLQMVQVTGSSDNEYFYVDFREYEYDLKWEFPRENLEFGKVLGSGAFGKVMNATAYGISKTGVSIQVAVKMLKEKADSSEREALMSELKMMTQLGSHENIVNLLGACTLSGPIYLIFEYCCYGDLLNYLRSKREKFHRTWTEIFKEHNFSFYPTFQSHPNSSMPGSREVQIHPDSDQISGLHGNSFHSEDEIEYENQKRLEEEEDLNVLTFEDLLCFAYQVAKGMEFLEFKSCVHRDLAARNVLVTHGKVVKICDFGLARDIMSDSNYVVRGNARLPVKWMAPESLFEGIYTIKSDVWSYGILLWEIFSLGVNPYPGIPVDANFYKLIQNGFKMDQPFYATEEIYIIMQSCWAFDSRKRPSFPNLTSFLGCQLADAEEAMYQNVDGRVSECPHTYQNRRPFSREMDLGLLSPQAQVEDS

MAP3K2 (human) = MAP3K2 (human) (UniProt Q9Y2U5)
Chain of MAP3K2 (human) (Q9Y2U5 whole entry, looked up): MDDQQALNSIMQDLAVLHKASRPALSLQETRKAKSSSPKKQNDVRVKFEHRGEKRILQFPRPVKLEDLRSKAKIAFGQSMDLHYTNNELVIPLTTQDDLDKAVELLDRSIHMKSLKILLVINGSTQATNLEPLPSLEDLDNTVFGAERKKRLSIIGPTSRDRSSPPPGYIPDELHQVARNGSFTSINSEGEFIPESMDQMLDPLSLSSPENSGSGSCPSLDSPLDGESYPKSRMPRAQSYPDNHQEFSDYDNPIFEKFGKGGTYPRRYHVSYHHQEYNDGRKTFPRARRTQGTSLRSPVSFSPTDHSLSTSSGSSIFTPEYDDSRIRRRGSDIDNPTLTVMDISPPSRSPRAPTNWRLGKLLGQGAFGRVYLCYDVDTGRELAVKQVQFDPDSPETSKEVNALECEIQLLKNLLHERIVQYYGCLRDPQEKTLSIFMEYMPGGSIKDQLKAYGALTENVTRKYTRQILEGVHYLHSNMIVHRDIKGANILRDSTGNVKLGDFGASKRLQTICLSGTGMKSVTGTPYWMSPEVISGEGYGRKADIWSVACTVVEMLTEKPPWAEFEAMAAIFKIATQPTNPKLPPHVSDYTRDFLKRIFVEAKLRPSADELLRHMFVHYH

MAP3K3 (human) = MAP3K3 (human) (UniProt Q99759)
MAP3K5 (human) = MAP3K5 (human) (UniProt Q99683)
MAP3K7 TAB1 (human) = MAP3K7 TAB1 (human) (UniProt O43318+Q15750)
MAP3K8 (human) = MAP3K8 (human) (UniProt P41279)
MAP4K2 (human) = MAP4K2 (human) (UniProt Q12851)
MAPK13 (human) = MAPK13 (human) (UniProt O15264)
MAPK14 (human) = MAPK14 (human) (UniProt Q16539)
MLTK (human) = MLTK (human) (UniProt Q9NYL2)
NTRK2 (human) = NTRK2 (human) (UniProt Q16620)
PAK4 (human) = PAK4 (human) (UniProt O96013)
PIM3 (human) = PIM3 (human) (UniProt Q86V86)
PLK1 (human) = PLK1 (human) (UniProt P53350)
PRKCD (human) = PRKCD (human) (UniProt Q05655)
PRKCG (human) = PRKCG (human) (UniProt P05129)
PRKCH (human) = PRKCH (human) (UniProt P24723)
PRKG2 (human) = PRKG2 (human) (UniProt Q13237)
PRKX (human) = PRKX (human) (UniProt P51817)
RET (human) = RET (human) (UniProt P07949)
RIPK2 (human) = RIPK2 (human) (UniProt O43353)
Chain of RIPK2 (human) (O43353 whole entry, looked up): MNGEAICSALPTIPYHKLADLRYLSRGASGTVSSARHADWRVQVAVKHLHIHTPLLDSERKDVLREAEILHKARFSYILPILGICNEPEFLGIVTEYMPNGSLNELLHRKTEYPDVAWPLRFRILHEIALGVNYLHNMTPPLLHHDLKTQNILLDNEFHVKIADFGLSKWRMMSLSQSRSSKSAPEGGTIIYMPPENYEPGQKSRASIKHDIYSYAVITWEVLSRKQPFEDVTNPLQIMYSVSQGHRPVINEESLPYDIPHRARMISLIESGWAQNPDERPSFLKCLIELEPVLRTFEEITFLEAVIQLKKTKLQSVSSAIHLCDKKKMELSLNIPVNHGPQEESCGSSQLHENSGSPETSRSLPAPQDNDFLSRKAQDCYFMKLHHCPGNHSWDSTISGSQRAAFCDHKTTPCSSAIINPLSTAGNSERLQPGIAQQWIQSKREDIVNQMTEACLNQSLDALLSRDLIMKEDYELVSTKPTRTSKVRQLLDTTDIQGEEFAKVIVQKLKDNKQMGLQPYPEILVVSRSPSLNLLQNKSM

RPS6KB2 (human) = RPS6KB2 (human) (UniProt Q9UBS0)
SRC (human) = SRC (human) (UniProt P12931)
SYK (human) = SYK (human) (UniProt P43405)
TBK1 (human) = TBK1 (human) (UniProt Q9UHD2)
Chain of TBK1 (human) (Q9UHD2 whole entry, looked up): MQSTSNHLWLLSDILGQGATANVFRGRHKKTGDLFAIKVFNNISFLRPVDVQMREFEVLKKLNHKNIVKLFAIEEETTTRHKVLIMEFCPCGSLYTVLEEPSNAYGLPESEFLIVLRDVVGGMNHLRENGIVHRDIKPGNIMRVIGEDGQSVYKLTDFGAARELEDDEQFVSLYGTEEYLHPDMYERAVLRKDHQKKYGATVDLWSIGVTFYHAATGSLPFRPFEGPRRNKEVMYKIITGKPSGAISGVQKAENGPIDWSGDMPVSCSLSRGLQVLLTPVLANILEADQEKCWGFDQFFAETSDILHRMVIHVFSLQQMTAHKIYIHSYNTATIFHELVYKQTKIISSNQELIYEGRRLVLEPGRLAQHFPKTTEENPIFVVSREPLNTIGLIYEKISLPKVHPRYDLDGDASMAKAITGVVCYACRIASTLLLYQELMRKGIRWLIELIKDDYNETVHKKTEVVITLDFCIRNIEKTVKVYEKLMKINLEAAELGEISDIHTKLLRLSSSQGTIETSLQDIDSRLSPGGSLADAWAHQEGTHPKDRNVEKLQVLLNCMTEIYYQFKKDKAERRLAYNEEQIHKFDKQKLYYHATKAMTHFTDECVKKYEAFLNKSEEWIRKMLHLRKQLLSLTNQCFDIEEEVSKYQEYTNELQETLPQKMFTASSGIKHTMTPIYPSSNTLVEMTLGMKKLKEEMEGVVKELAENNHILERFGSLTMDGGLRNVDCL

ULK1 (human) = ULK1 (human) (UniProt O75385)

Chain of CDK2 CCNA2 (human) (P20248 whole entry, looked up, other chains not shown): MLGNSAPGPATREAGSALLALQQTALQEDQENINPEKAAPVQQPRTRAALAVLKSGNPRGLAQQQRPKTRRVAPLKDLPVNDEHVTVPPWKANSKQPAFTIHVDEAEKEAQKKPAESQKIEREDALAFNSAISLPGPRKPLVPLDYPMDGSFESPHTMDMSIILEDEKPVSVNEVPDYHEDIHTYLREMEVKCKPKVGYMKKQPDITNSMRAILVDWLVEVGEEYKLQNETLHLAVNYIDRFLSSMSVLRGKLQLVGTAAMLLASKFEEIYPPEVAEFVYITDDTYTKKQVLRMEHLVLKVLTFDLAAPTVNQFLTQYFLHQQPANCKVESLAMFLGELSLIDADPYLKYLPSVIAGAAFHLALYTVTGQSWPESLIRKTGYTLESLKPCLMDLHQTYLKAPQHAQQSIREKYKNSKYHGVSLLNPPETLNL

O=C1c2ccccc2-c2nc3nnnn3nc21
residual activity (ALK (human)): 83.5% | residual activity (BTK (human)): 90.6% | residual activity (CAMKK1 (human)): 74.9% | residual activity (CDK2 CCNA2 (human)): 70.3% | residual activity (CDK4 CCND3 (human)): 68.1% | residual activity (CDK6 CCND1 (human)): 59.6% | residual activity (CDK6 CCND3 (human)): 9.93% | residual activity (CLK3 (human)): 81.2% | residual activity (CSNK1E (human)): 80.6% | residual activity (EPHA1 (human)): 73.1% | residual activity (EPHA8 (human)): 92.6% | residual activity (FES (human)): 87.6% | residual activity (FGFR1 (human)): 24.2% | residual activity (FGFR2 (human)): 59.4% | residual activity (FGFR3 (human)): 26.7% | residual activity (FGFR4 (human)): 58% | residual activity (FLT3 (human)): 100% | residual activity (MAP3K2 (human)): 83% | residual activity (MAP3K3 (human)): 134% | residual activity (MAP3K5 (human)): 106% | residual activity (MAP3K7 TAB1 (human)): 89.9% | residual activity (MAP3K8 (human)): 75.9% | residual activity (MAP4K2 (human)): 79.4% | residual activity (MAPK13 (human)): 95.6% | residual activity (MAPK14 (human)): 88.6% | residual activity (MLTK (human)): 69.8% | residual activity (NTRK2 (human)): 29.4% | residual activity (PAK4 (human)): 91.4% | residual activity (PIM3 (human)): 93.3% | residual activity (PLK1 (human)): 28.6% | residual activity (PRKCD (human)): 102% | residual activity (PRKCG (human)): 59.3% | residual activity (PRKCH (human)): 49.2% | residual activity (PRKG2 (human)): 140% | residual activity (PRKX (human)): 94.3% | residual activity (RET (human)): 101% | residual activity (RIPK2 (human)): 101% | residual activity (RPS6KB2 (human)): 86.3% | residual activity (SRC (human)): 80.4% | residual activity (SYK (human)): 94.8% | residual activity (TBK1 (human)): 87% | residual activity (ULK1 (human)): 107%

CC(C)(C)c1cc(C=C(C#N)C#N)cc(Br)c1O
residual activity (ALK (human)): 97.9% | residual activity (BTK (human)): 101% | residual activity (CAMKK1 (human)): 120% | residual activity (CDK2 CCNA2 (human)): 90.7% | residual activity (CDK4 CCND3 (human)): 96.5% | residual activity (CDK6 CCND1 (human)): 99.1% | residual activity (CDK6 CCND3 (human)): 89.3% | residual activity (CLK3 (human)): 122% | residual activity (CSNK1E (human)): 92.1% | residual activity (EPHA1 (human)): 85.1% | residual activity (EPHA8 (human)): 100% | residual activity (FES (human)): 105% | residual activity (FGFR1 (human)): 95.9% | residual activity (FGFR2 (human)): 96.4% | residual activity (FGFR3 (human)): 92.8% | residual activity (FGFR4 (human)): 98% | residual activity (FLT3 (human)): 102% | residual activity (MAP3K2 (human)): 93.7% | residual activity (MAP3K3 (human)): 118% | residual activity (MAP3K5 (human)): 100% | residual activity (MAP3K7 TAB1 (human)): 87.9% | residual activity (MAP3K8 (human)): 104% | residual activity (MAP4K2 (human)): 113% | residual activity (MAPK13 (human)): 98.5% | residual activity (MAPK14 (human)): 98.3% | residual activity (MLTK (human)): 91.2% | residual activity (NTRK2 (human)): 90.9% | residual activity (PAK4 (human)): 124% | residual activity (PIM3 (human)): 89.1% | residual activity (PLK1 (human)): 92.3% | residual activity (PRKCD (human)): 83% | residual activity (PRKCG (human)): 90.4% | residual activity (PRKCH (human)): 100% | residual activity (PRKG2 (human)): 87.6% | residual activity (PRKX (human)): 102% | residual activity (RET (human)): 98.2% | residual activity (RIPK2 (human)): 32.8% | residual activity (RPS6KB2 (human)): 102% | residual activity (SRC (human)): 87.4% | residual activity (SYK (human)): 97.6% | residual activity (TBK1 (human)): 90.2% | residual activity (ULK1 (human)): 88.2%

Ic1cccc(CSc2nnc(-c3ccncc3)o2)c1
residual activity (ALK (human)): 101% | residual activity (BTK (human)): 95.6% | residual activity (CAMKK1 (human)): 124% | residual activity (CDK2 CCNA2 (human)): 100% | residual activity (CDK4 CCND3 (human)): 97.5% | residual activity (CDK6 CCND1 (human)): 97.5% | residual activity (CDK6 CCND3 (human)): 102% | residual activity (CLK3 (human)): 76.3% | residual activity (CSNK1E (human)): 94.3% | residual activity (EPHA1 (human)): 97% | residual activity (EPHA8 (human)): 91.5% | residual activity (FES (human)): 98% | residual activity (FGFR1 (human)): 92.4% | residual activity (FGFR2 (human)): 101% | residual activity (FGFR3 (human)): 106% | residual activity (FGFR4 (human)): 97.2% | residual activity (FLT3 (human)): 102% | residual activity (MAP3K2 (human)): 106% | residual activity (MAP3K3 (human)): 89.6% | residual activity (MAP3K5 (human)): 91.7% | residual activity (MAP3K7 TAB1 (human)): 102% | residual activity (MAP3K8 (human)): 96.1% | residual activity (MAP4K2 (human)): 112% | residual activity (MAPK13 (human)): 93.8% | residual activity (MAPK14 (human)): 99.3% | residual activity (MLTK (human)): 96.7% | residual activity (NTRK2 (human)): 91.4% | residual activity (PAK4 (human)): 83.6% | residual activity (PIM3 (human)): 106% | residual activity (PLK1 (human)): 98.6% | residual activity (PRKCD (human)): 83.7% | residual activity (PRKCG (human)): 98.7% | residual activity (PRKCH (human)): 99.1% | residual activity (PRKG2 (human)): 105% | residual activity (PRKX (human)): 78.2% | residual activity (RET (human)): 103% | residual activity (RIPK2 (human)): 86.3% | residual activity (RPS6KB2 (human)): 103% | residual activity (SRC (human)): 101% | residual activity (SYK (human)): 92.2% | residual activity (TBK1 (human)): 103% | residual activity (ULK1 (human)): 97.1%

COc1ccc(C(=O)Nc2sc3c(c2C(N)=O)CCCC3)cc1OC
residual activity (ALK (human)): 66.2% | residual activity (BTK (human)): 104% | residual activity (CAMKK1 (human)): 125% | residual activity (CDK2 CCNA2 (human)): 103% | residual activity (CDK4 CCND3 (human)): 98.8% | residual activity (CDK6 CCND1 (human)): 95.1% | residual activity (CDK6 CCND3 (human)): 94.9% | residual activity (CLK3 (human)): 63% | residual activity (CSNK1E (human)): 94% | residual activity (EPHA1 (human)): 88.1% | residual activity (EPHA8 (human)): 114% | residual activity (FES (human)): 102% | residual activity (FGFR1 (human)): 94.8% | residual activity (FGFR2 (human)): 100% | residual activity (FGFR3 (human)): 98.3% | residual activity (FGFR4 (human)): 105% | residual activity (FLT3 (human)): 42% | residual activity (MAP3K2 (human)): 105% | residual activity (MAP3K3 (human)): 100% | residual activity (MAP3K5 (human)): 94.8% | residual activity (MAP3K7 TAB1 (human)): 101% | residual activity (MAP3K8 (human)): 106% | residual activity (MAP4K2 (human)): 106% | residual activity (MAPK13 (human)): 109% | residual activity (MAPK14 (human)): 97.5% | residual activity (MLTK (human)): 93.8% | residual activity (NTRK2 (human)): 67.4% | residual activity (PAK4 (human)): 95.9% | residual activity (PIM3 (human)): 109% | residual activity (PLK1 (human)): 99% | residual activity (PRKCD (human)): 81.8% | residual activity (PRKCG (human)): 93% | residual activity (PRKCH (human)): 101% | residual activity (PRKG2 (human)): 104% | residual activity (PRKX (human)): 101% | residual activity (RET (human)): 102% | residual activity (RIPK2 (human)): 76.5% | residual activity (RPS6KB2 (human)): 101% | residual activity (SRC (human)): 100% | residual activity (SYK (human)): 91.2% | residual activity (TBK1 (human)): 102% | residual activity (ULK1 (human)): 96%
